Tested on: not given
Assay: not given
Settings: not given

Row | melting point | Structure (SMILES)
1 | 84 to 86 °C | COC(=O)c1nc(-c2ccc(C(F)(F)F)nc2F)c(F)cc1Cl [F354, methyl 5-chloro-2′,3-difluoro-6′-(trifluoromethyl)-[2,3′-bipyridine]-6-carboxylate]
2 | 155.2 to 163.3 °C | COc1ncc(Cl)cc1-c1ccc(Cl)c(C(=O)O)n1 [F134, 5,5′-Dichloro-2′-methoxy-[2,3′-bipyridine]-6-carboxylic acid]

Tested on: test plant species
Assay: Post-emergent herbicidal activity test (greenhouse, foliar spray, visual growth reduction)
Type: in vivo
Settings: post-emergence, 336 h, ALOMY: blackgrass (Alopecurus myosuroides), 140 g ai/ha, 14 days after application, read-out: Visual Growth Reduction (%) 14 Days After Application, ALOMY
Method in brief: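 Plants grown in greenhouse (15 h photoperiod, 23-29° C day/22-28° C night) to first or second true leaf stage were sprayed overhead with compound in acetone/water/isopropanol/DMSO/crop oil/X-77 carrier at 187 L/ha. Injury was scored visually after 14 d on a 0-100% scale versus solvent-blank and untreated controls.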

Row | Structure (SMILES) | pest or weed control at 140 g/ha
3 | COc1ncc(Cl)cc1-c1ccc(Cl)c(C(=O)O)n1 [F134, 5,5′-Dichloro-2′-methoxy-[2,3′-bipyridine]-6-carboxylic acid] | 0 to 29%

Same assay, conditions: post-emergence, 336 h, AMARE: redroot pigweed (Amaranthus retroflexus), 140 g ai/ha, 14 days after application, read-out: Visual Growth Reduction (%) 14 Days After Application, AMARE

Row | Structure (SMILES) | pest or weed control at 140 g/ha
4 | COc1ncc(Cl)cc1-c1ccc(Cl)c(C(=O)O)n1 [F134, 5,5′-Dichloro-2′-methoxy-[2,3′-bipyridine]-6-carboxylic acid] | 0 to 29%

Same assay, conditions: post-emergence, 336 h, AVEFA: wild oat (Avena fatua), 140 g ai/ha, 14 days after application, read-out: Visual Growth Reduction (%) 14 Days After Application, AVEFA

Row | Structure (SMILES) | pest or weed control at 140 g/ha
5 | COc1ncc(Cl)cc1-c1ccc(Cl)c(C(=O)O)n1 [F134, 5,5′-Dichloro-2′-methoxy-[2,3′-bipyridine]-6-carboxylic acid] | 0 to 29%

Same assay, conditions: post-emergence, 336 h, CHEAL: lambsquarters (Chenopodium album), 140 g ai/ha, 14 days after application, read-out: Visual Growth Reduction (%) 14 Days After Application, CHEAL

Row | Structure (SMILES) | pest or weed control at 140 g/ha
6 | COc1ncc(Cl)cc1-c1ccc(Cl)c(C(=O)O)n1 [F134, 5,5′-Dichloro-2′-methoxy-[2,3′-bipyridine]-6-carboxylic acid] | 0 to 29%

Same assay, conditions: post-emergence, 336 h, CIRAR: canada thistle (Cirsium arvense), 140 g ai/ha, 14 days after application, read-out: Visual Growth Reduction (%) 14 Days After Application, CIRAR

Row | Structure (SMILES) | pest or weed control at 140 g/ha
7 | COc1ncc(Cl)cc1-c1ccc(Cl)c(C(=O)O)n1 [F134, 5,5′-Dichloro-2′-methoxy-[2,3′-bipyridine]-6-carboxylic acid] | 0 to 29%

Same assay, conditions: post-emergence, 336 h, CYPES: yellow nutsedge (Cyperus esculentus), 140 g ai/ha, 14 days after application, read-out: Visual Growth Reduction (%) 14 Days After Application, CYPES

Row | Structure (SMILES) | pest or weed control at 140 g/ha
8 | COc1ncc(Cl)cc1-c1ccc(Cl)c(C(=O)O)n1 [F134, 5,5′-Dichloro-2′-methoxy-[2,3′-bipyridine]-6-carboxylic acid] | 0 to 29%

Same assay, conditions: post-emergence, 336 h, DIGSA: crabgrass (Digitaria sanguinalis), 140 g ai/ha, 14 days after application, read-out: Visual Growth Reduction (%) 14 Days After Application, DIGSA

Row | Structure (SMILES) | pest or weed control at 140 g/ha
9 | COc1ncc(Cl)cc1-c1ccc(Cl)c(C(=O)O)n1 [F134, 5,5′-Dichloro-2′-methoxy-[2,3′-bipyridine]-6-carboxylic acid] | 0 to 29%

Same assay, conditions: post-emergence, 336 h, ECHCG: barnyardgrass (Echinochloa crus-galli), 140 g ai/ha, 14 days after application, read-out: Visual Growth Reduction (%) 14 Days After Application, ECHCG

Row | Structure (SMILES) | pest or weed control at 140 g/ha
10 | COC(=O)c1nc(-c2ccc(C(F)(F)F)nc2F)c(F)cc1Cl [F354, methyl 5-chloro-2′,3-difluoro-6′-(trifluoromethyl)-[2,3′-bipyridine]-6-carboxylate] | 75 to 84%
11 | COc1ncc(Cl)cc1-c1ccc(Cl)c(C(=O)O)n1 [F134, 5,5′-Dichloro-2′-methoxy-[2,3′-bipyridine]-6-carboxylic acid] | 0 to 29%

Same assay, conditions: post-emergence, 336 h, IPOHE: ivy-leaf morning glory (Ipomoea hederacea), 140 g ai/ha, 14 days after application, read-out: Visual Growth Reduction (%) 14 Days After Application, IPOHE

Row | Structure (SMILES) | pest or weed control at 140 g/ha
12 | COC(=O)c1nc(-c2ccc(C(F)(F)F)nc2F)c(F)cc1Cl [F354, methyl 5-chloro-2′,3-difluoro-6′-(trifluoromethyl)-[2,3′-bipyridine]-6-carboxylate] | 95 to 100%
13 | COc1ncc(Cl)cc1-c1ccc(Cl)c(C(=O)O)n1 [F134, 5,5′-Dichloro-2′-methoxy-[2,3′-bipyridine]-6-carboxylic acid] | 0 to 29%

Same assay, conditions: post-emergence, 336 h, KCHSC: kochia (Bassia scoparia), 140 g ai/ha, 14 days after application, read-out: Visual Growth Reduction (%) 14 Days After Application, KCHSC

Row | Structure (SMILES) | pest or weed control at 140 g/ha
14 | COC(=O)c1nc(-c2ccc(C(F)(F)F)nc2F)c(F)cc1Cl [F354, methyl 5-chloro-2′,3-difluoro-6′-(trifluoromethyl)-[2,3′-bipyridine]-6-carboxylate] | 60 to 74%
15 | COc1ncc(Cl)cc1-c1ccc(Cl)c(C(=O)O)n1 [F134, 5,5′-Dichloro-2′-methoxy-[2,3′-bipyridine]-6-carboxylic acid] | 0 to 29%

Same assay, conditions: post-emergence, 336 h, ORYSA: rice (Oryza sativa), 140 g ai/ha, 14 days after application, read-out: Visual Growth Reduction (%) 14 Days After Application, ORYSA

Row | Structure (SMILES) | pest or weed control at 140 g/ha
16 | COC(=O)c1nc(-c2ccc(C(F)(F)F)nc2F)c(F)cc1Cl [F354, methyl 5-chloro-2′,3-difluoro-6′-(trifluoromethyl)-[2,3′-bipyridine]-6-carboxylate] | 0 to 29%
17 | COc1ncc(Cl)cc1-c1ccc(Cl)c(C(=O)O)n1 [F134, 5,5′-Dichloro-2′-methoxy-[2,3′-bipyridine]-6-carboxylic acid] | 0 to 29%

Same assay, conditions: post-emergence, 336 h, SETFA: giant foxtail (Setaria faberi), 140 g ai/ha, 14 days after application, read-out: Visual Growth Reduction (%) 14 Days After Application, SETFA

Row | Structure (SMILES) | pest or weed control at 140 g/ha
18 | COC(=O)c1nc(-c2ccc(C(F)(F)F)nc2F)c(F)cc1Cl [F354, methyl 5-chloro-2′,3-difluoro-6′-(trifluoromethyl)-[2,3′-bipyridine]-6-carboxylate] | 75 to 84%
19 | COc1ncc(Cl)cc1-c1ccc(Cl)c(C(=O)O)n1 [F134, 5,5′-Dichloro-2′-methoxy-[2,3′-bipyridine]-6-carboxylic acid] | 0 to 29%

Same assay, conditions: post-emergence, 336 h, SORVU: grain sorghum (Sorghum vulgare), 140 g ai/ha, 14 days after application, read-out: Visual Growth Reduction (%) 14 Days After Application, SORVU

Row | Structure (SMILES) | pest or weed control at 140 g/ha
20 | COC(=O)c1nc(-c2ccc(C(F)(F)F)nc2F)c(F)cc1Cl [F354, methyl 5-chloro-2′,3-difluoro-6′-(trifluoromethyl)-[2,3′-bipyridine]-6-carboxylate] | 85 to 94%
21 | COc1ncc(Cl)cc1-c1ccc(Cl)c(C(=O)O)n1 [F134, 5,5′-Dichloro-2′-methoxy-[2,3′-bipyridine]-6-carboxylic acid] | 0 to 29%

Same assay, conditions: post-emergence, 336 h, STEME: common chickweed (Stellaria media), 140 g ai/ha, 14 days after application, read-out: Visual Growth Reduction (%) 14 Days After Application, STEME

Row | Structure (SMILES) | pest or weed control at 140 g/ha
22 | COC(=O)c1nc(-c2ccc(C(F)(F)F)nc2F)c(F)cc1Cl [F354, methyl 5-chloro-2′,3-difluoro-6′-(trifluoromethyl)-[2,3′-bipyridine]-6-carboxylate] | 0 to 29%
23 | COc1ncc(Cl)cc1-c1ccc(Cl)c(C(=O)O)n1 [F134, 5,5′-Dichloro-2′-methoxy-[2,3′-bipyridine]-6-carboxylic acid] | 0 to 29%

Same assay, conditions: post-emergence, 336 h, TRZAS: wheat, spring (Triticum aestivum), 140 g ai/ha, 14 days after application, read-out: Visual Growth Reduction (%) 14 Days After Application, TRZAS

Row | Structure (SMILES) | pest or weed control at 140 g/ha
24 | COC(=O)c1nc(-c2ccc(C(F)(F)F)nc2F)c(F)cc1Cl [F354, methyl 5-chloro-2′,3-difluoro-6′-(trifluoromethyl)-[2,3′-bipyridine]-6-carboxylate] | 60 to 74%
25 | COc1ncc(Cl)cc1-c1ccc(Cl)c(C(=O)O)n1 [F134, 5,5′-Dichloro-2′-methoxy-[2,3′-bipyridine]-6-carboxylic acid] | 0 to 29%

Same assay, conditions: post-emergence, 336 h, blackgrass (Alopecurus myosuroides), 14 Days After Application, 140 g ai/ha, read-out: Visual Growth Reduction (%) ALOMY

Row | Structure (SMILES) | pest or weed control at 140 g/ha
26 | COC(=O)c1nc(-c2ccc(C(F)(F)F)nc2F)c(F)cc1Cl [F354, methyl 5-chloro-2′,3-difluoro-6′-(trifluoromethyl)-[2,3′-bipyridine]-6-carboxylate] | 0 to 29%

Same assay, conditions: post-emergence, 336 h, canada thistle (Cirsium arvense), 14 Days After Application, 140 g ai/ha, read-out: Visual Growth Reduction (%) CIRAR

Row | Structure (SMILES) | pest or weed control at 140 g/ha
27 | COC(=O)c1nc(-c2ccc(C(F)(F)F)nc2F)c(F)cc1Cl [F354, methyl 5-chloro-2′,3-difluoro-6′-(trifluoromethyl)-[2,3′-bipyridine]-6-carboxylate] | 75 to 84%

Same assay, conditions: post-emergence, 336 h, crabgrass (Digitaria sanguinalis), 14 Days After Application, 140 g ai/ha, read-out: Visual Growth Reduction (%) DIGSA

Row | Structure (SMILES) | pest or weed control at 140 g/ha
28 | COC(=O)c1nc(-c2ccc(C(F)(F)F)nc2F)c(F)cc1Cl [F354, methyl 5-chloro-2′,3-difluoro-6′-(trifluoromethyl)-[2,3′-bipyridine]-6-carboxylate] | 85 to 94%

Same assay, conditions: post-emergence, 336 h, lambsquarters (Chenopodium album), 14 Days After Application, 140 g ai/ha, read-out: Visual Growth Reduction (%) CHEAL

Row | Structure (SMILES) | pest or weed control at 140 g/ha
29 | COC(=O)c1nc(-c2ccc(C(F)(F)F)nc2F)c(F)cc1Cl [F354, methyl 5-chloro-2′,3-difluoro-6′-(trifluoromethyl)-[2,3′-bipyridine]-6-carboxylate] | 75 to 84%

Same assay, conditions: post-emergence, 336 h, redroot pigweed (Amaranthus retroflexus), 14 Days After Application, 140 g ai/ha, read-out: Visual Growth Reduction (%) AMARE

Row | Structure (SMILES) | pest or weed control at 140 g/ha
30 | COC(=O)c1nc(-c2ccc(C(F)(F)F)nc2F)c(F)cc1Cl [F354, methyl 5-chloro-2′,3-difluoro-6′-(trifluoromethyl)-[2,3′-bipyridine]-6-carboxylate] | 60 to 74%

Same assay, conditions: post-emergence, 336 h, wild oat (Avena fatua), 14 Days After Application, 140 g ai/ha, read-out: Visual Growth Reduction (%) AVEFA

Row | Structure (SMILES) | pest or weed control at 140 g/ha
31 | COC(=O)c1nc(-c2ccc(C(F)(F)F)nc2F)c(F)cc1Cl [F354, methyl 5-chloro-2′,3-difluoro-6′-(trifluoromethyl)-[2,3′-bipyridine]-6-carboxylate] | 30 to 44%

Same assay, conditions: post-emergence, 336 h, yellow nutsedge (Cyperus esculentus), 14 Days After Application, 140 g ai/ha, read-out: Visual Growth Reduction (%) CYPES

Row | Structure (SMILES) | pest or weed control at 140 g/ha
32 | COC(=O)c1nc(-c2ccc(C(F)(F)F)nc2F)c(F)cc1Cl [F354, methyl 5-chloro-2′,3-difluoro-6′-(trifluoromethyl)-[2,3′-bipyridine]-6-carboxylate] | 0 to 29%
